Assay results: patent EP0922101B1, “EGF-LIKE FACTOR FROM CHROMAFFIN GRANULES AND GLIA CELL-DERIVED NEUROTROPHIC FACTOR WITH SURVIVAL-PROMOTING ACTIVITY ON DAERGIC NEURONS” (BIOPHARM Gesellschaft zur biotechnologischen Entwicklung …, priority 1996, dated 1998)
Entries after “also recorded” stand apart in the source; their conditions may differ.

Experiments:
[1] = tested on: mesencephalic DAergic neurons; test: Survival of TH-positive DAergic neurons in dissociated E14 ventral mesencephalic cell cultures (TH immunocytochemistry, cell counts); assay type: cell-based, rat; conditions: for survival promoting activity: concentrations up to 100 ng/ml, treated for 7 days; for effect on survival promoting effect of chromaffin granule protein: 30 µM in combination with chromaffin granule protein 1:50, DIV1-DIV8; for basal survival of TH-immunoreactive neurons: 30 µM, control cultures, DIV8
Procedure: (§1) Tissue culture. Mesencephalic cell cultures were essentially established as described by Krieglstein and Unsicker (1994). In brief, the ventral midbrain floor was dissected from embryonic day (E) 14 Wistar rat fetuses of two litters (20-25 embryos) and collected in CMF. Tissue pieces were enzymatically dissociated using 0.25% trypsin (BioWhittaker) in CMF for 15 min at 37°C. After addition of an equal volume of ice-cold horse serum and 1mg DNAse, Cells were triturated with fire-polished and siliconized pasteur pipettes and subsequently washed with DMEM/F12. The single cell suspension (100µl) was seeded on polyornithine (0.1 mg/ml in 15mM borate buffer, pH 8.4, Sigma)-laminin (5µg/ml; Sigma) coated glass cover slips at a density of 200.000 cells/cm^2. Coverslips were incubated in a humified 5% CO2/95% air atmosphere to allow cells to attach. After two hours coverslips were transferred to 24-well plates (Falcon) containing 750 µl medium. On the following day, and subsequently every three days, 500 µl of the medium was replaced and neurotrophic factors were added at the same time at the given concentrations.
Immunocytochemistry. To identify DAergic or serotinergic neurons cells were visualized using antibodies aginst tyrosine hydroxylase (TH), or serotonin, respectively. Cells were fixed with 4% paraformaldehyde buffered in phosphate buffered saline (PBS) for 10 min at room temperature, permeabilized with acetone at -20°C for 10 min and washed with (PBS). After blocking with 1% H2O2 in PBS, followed by 1 % horse serum, coverslips were stained with a monoclonal antibody to rat TH (1:200; Boehringer Mannheim; diluted in 1 % horse serum) or with an antibody against serotonin (1:50; DAKO) for 1 h at 37°C. Specific staining was vizualized using the anti-mouse Vectastain ABC kit in combination with DAB (Camon, Germany). For glial fibrillary acidic protein (GFAP) immunocytochemistry, cells were fixed and permeabilized using aceton at -20°C for 20 min, then washed with PBS and incubated with a monoclonal antibody against GFAP (1:100; Sigma) for 1 h at 37°C. As a secondary antibody TRITC anti-mouse-IgG was used. To monitor cell proliferation bromodesoxyuridine (BrdU) was added to the culture, 24 hours prior fixation, at a final concentration of 10 µM. Cells were washed twice with PBS and fixed with 70% ethanol buffered with 50 mM glycine, pH 2.0, for 20 min at -20°C. Incorporated BrdU was identified using anti-BrdU detection Kit I (Boehringer, Mannheim). BrdU/TH double detection was achieved by first applying the protocol for BrdU followed after another five washes with PBS and by the procedure for TH staining using TRITC anti-mouse-IgG as a secondary antibody. Nuclei were stained with propidium iodide (20 s, 0.1µg/ml). Coverslips were mounted using Aquatex (Merck, Darmstadt).
(§2) Evaluation of cell numbers. Survival of DAergic neurons was evaluated by counting all TH-positive neurons in one diagonal strips of the coverslip using 100-fold magnification. This area corresponded to 12% of the total area. Quantification was done in triplicate and in at least two independent experiments. The number of GFAP-positive cells were assessed likewise.

[2] = tested on: GFAP-positive astroglial cells; test: Induction of GFAP-positive astroglial cells in E14 mesencephalic cell cultures (GFAP immunocytochemistry); assay type: cell-based, rat
Procedure: as §1
Immunocytochemistry. To identify DAergic or serotinergic neurons cells were visualized using antibodies aginst tyrosine hydroxylase (TH), or serotonin, respectively. Cells were fixed with 4% paraformaldehyde buffered in phosphate buffered saline (PBS) for 10 min at room temperature, permeabilized with acetone at -20°C for 10 min and washed with (PBS). After blocking with 1% H2O2 in PBS, followed by 1 % horse serum, coverslips were stained with a monoclonal antibody to rat TH (1:200; Boehringer Mannheim; diluted in 1 % horse serum) or with an antibody against serotonin (1:50; DAKO) for 1 h at 37°C. Specific staining was vizualized using the anti-mouse Vectastain ABC kit in combination with DAB (Camon, Germany). For glial fibrillary acidic protein (GFAP) immunocytochemistry, cells were fixed and permeabilized using aceton at -20°C for 20 min, then washed with PBS and incubated with a monoclonal antibody against GFAP (1:100; Sigma) for 1 h at 37°C. As a secondary antibody TRITC anti-mouse-IgG was used. […]
as §2, with “This area corresponded to 12% of the total area.” left out
In an initial series of experiments the chromaffin granule-derived activity is analyzed by specifically blocking its putative receptor pathway. […] When cultures were treated with TGF-α, a physiological EGFR ligand in the CNS, or EGF (10 ng/ml), only few GFAP-positive astroglial cells could be detected (Fig. 12). […]

p185^c-erbB2 = p185^c-erbB2 (Homo sapiens, UniProt P04626); conditions: cited from earlier work
Chain of p185^c-erbB2 (P04626 23-1255): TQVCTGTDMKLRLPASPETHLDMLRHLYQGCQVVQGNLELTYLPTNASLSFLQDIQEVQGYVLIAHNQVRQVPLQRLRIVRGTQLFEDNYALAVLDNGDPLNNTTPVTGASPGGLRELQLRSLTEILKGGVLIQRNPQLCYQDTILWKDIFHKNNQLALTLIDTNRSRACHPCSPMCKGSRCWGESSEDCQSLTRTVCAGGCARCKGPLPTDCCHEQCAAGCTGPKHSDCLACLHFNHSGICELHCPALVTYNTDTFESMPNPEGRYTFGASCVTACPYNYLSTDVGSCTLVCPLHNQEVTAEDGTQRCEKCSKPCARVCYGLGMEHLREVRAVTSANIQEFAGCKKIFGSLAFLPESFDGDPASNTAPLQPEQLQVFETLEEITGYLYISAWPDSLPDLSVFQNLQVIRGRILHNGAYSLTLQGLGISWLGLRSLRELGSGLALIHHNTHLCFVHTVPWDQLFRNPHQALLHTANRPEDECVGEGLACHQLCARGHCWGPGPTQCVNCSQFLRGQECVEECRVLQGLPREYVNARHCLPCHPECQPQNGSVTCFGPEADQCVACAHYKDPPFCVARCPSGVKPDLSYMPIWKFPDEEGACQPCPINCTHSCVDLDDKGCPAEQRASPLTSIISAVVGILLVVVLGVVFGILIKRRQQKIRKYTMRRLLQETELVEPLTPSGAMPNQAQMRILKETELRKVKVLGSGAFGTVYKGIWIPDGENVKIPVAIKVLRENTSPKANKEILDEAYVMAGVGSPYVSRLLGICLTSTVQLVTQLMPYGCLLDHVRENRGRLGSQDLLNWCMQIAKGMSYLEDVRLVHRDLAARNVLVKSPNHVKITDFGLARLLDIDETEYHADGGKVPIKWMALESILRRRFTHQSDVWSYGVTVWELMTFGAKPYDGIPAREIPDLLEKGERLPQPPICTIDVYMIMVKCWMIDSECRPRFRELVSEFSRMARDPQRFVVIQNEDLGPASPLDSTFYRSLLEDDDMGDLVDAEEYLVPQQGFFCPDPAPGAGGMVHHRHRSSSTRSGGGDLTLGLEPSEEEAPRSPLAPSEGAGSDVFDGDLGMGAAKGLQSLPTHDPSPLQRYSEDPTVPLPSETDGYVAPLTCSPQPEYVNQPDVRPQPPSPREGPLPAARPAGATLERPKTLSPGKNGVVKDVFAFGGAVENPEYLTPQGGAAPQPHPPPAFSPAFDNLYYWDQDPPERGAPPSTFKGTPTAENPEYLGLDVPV

EGFR kinase = EGFR kinase (Homo sapiens, UniProt P00533); conditions: EGFR kinase autophosphorylation; cited from earlier work
Chain of EGFR kinase (P00533 25-1210): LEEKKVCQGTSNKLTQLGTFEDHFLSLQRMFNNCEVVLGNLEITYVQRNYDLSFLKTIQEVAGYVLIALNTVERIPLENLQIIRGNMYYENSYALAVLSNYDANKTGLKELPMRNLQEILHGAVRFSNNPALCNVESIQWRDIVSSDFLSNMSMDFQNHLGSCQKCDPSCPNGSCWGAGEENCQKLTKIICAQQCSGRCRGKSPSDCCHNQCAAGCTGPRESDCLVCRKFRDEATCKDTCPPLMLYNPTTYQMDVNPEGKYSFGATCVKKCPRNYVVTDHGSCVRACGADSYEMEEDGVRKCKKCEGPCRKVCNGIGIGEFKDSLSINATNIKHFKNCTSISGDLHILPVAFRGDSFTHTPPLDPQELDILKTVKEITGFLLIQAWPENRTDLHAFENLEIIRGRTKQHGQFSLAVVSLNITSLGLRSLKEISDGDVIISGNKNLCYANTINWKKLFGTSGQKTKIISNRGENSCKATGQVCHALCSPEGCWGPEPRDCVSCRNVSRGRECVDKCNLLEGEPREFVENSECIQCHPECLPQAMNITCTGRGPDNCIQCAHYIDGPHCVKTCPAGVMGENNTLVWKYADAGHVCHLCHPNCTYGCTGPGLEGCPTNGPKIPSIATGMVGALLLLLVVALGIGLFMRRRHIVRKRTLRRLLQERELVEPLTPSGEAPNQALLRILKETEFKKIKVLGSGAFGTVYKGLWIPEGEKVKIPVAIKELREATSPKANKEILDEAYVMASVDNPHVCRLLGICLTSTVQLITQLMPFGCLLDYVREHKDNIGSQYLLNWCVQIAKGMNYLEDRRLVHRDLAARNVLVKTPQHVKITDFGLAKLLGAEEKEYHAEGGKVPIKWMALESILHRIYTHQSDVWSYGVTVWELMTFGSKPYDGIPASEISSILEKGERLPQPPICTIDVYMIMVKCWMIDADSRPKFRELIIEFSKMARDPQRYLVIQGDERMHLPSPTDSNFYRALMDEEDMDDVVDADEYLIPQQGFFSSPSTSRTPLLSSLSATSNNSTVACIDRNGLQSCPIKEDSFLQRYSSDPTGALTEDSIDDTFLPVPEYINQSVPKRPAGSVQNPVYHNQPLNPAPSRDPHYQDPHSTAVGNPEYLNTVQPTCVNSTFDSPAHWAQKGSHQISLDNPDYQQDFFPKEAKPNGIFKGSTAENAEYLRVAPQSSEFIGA

HER1-2-kinase = HER1-2-kinase autophosphorylation; cited from earlier work
[3] = 10µM with chromaffin granule protein 1:50, six days

## O=C1NC(=O)c2cc(Nc3ccccc3)c(Nc3ccccc3)cc21 [DAPH, 4,5-Dianilinophthalimide]
[1]; [3]
  effect on survival of DAergic neurons induced by chromaffin granule activity: inhibited
[2]; 10 µM with FGF-2 at 10 ng/ml, DIV 6
  effect on FGF-2-mediated induction of astroglial cells: could not be affected by this inhibitor
[2]; [3]
  effect on appearence of astroglial cell induced by the chromaffin granule activity: inhibited
[2]; 10 µM, DIV 6
  effect on appearance of GFAP-positive astroglial cells in TGF-α or EGF treated cultures: effectively blocked
p185^c-erbB2
  p185^c-erbB2 autophosphorylation: inhibits

## neuropeptide Y
[1]
  survival promoting activity: none of these neuropeptides had any survival promoting activity

## Leu-enkephalin
[1]
  survival promoting activity: none of these neuropeptides had any survival promoting activity

## C[N+](C)(C)CCOC(N)=O [carbachol]
[1]; culture medium containing carbachol (10^-5 M), DIV 8
  survival of TH-positive neurons: uneffective

## Met-enkephalin
[1]
  survival promoting activity: none of these neuropeptides had any survival promoting activity

## N#C/C(=C\c1ccc(O)c(O)c1)C(=O)NCCCCc1ccccc1 [Tyrphostin B56]
[2]; 10µM Tyrphostin B56 with chromaffin granule protein 1:50
  effect on chromaffin granule protein-induced appearence of astroglial cells: successfully inhibited; also recorded: fully blocked the effect of granule protein on mesencephalic glia
EGFR kinase
  IC50: 5 µM
HER1-2-kinase
  IC50: > 500 µM

## NC(CCCC(=O)O)C(=O)O (stereo not drawn) [AA, α-aminoadipic acid]
[1]
  effect on survival promoting effect of chromaffin granule protein: abolished the survival promoting affect of chromaffin granule protein
  basal survival of TH-immunoreactive neurons: without affecting basal survival

## O=c1[nH]c(=O)n([C@H]2C[C@H](O)[C@@H](CO)O2)cc1F [FDUR, 5-fluorodeoxyuridine]
[1]
  effect on survival promoting effect of chromaffin granule protein: abolished the survival promoting affect of chromaffin granule protein
  basal survival of TH-immunoreactive neurons: without affecting basal survival
